Reference: paper PMC5377441 (International Journal for Parasitology: Drugs and Drug …, 2017)
Read-outs that look alike come from different tables or passages of the source. Marks after values point to notes of the source that are not given here. Values belong to the molecule of their own block, whether it stands above or below them.

Columns and labels:
adult T. muris = details: 72 h, ref Keiser et al., cited from earlier work
adult H. polygyrus = details: 100 μM, 72 h; ref Unpublished data; cited from earlier work
trichuriasis = details: ref Keiser and Utzinger, 2008; cited from earlier work
T. muris [1] = assay: Drug uptake by T. muris in vivo; parameters: species or system Trichuris muris in C57BL/10 mice; details: for drug quantity in worms, maximum: in vivo
T. muris [2] = details: ref Keiser et al., 2013, cited from earlier work
H. polygyrus = details: oral 100 mg/kg; ref Unpublished data; cited from earlier work
[3] = format: in vivo, C57BL/10 mice
T. muris [4] = assay: In vitro drug uptake and elimination by T. muris; format: in vitro ADME, Trichuris muris; details: for MBZ in worms / OxP in worms: 24 h
[5] = oral 100 mg/kg, rats; ref Cowan et al., 2016; cited from earlier work

drug quantity in worms, maximum (T. muris [1]): ≤ 21 nmol per ten T. muris
mebendazole in worms (T. muris [1]; intraperitoneal 100 mg/kg, 2 h): 5 nmol/10 worms
mebendazole in worms (T. muris [1]; oral 100 mg/kg, unchanged over time, close to LLOQ): 20 nmol/10 worms
concentration at 2 h ([3]; C57BL/10, mouse, plasma, intraperitoneal, 100 mg/kg): 3.6 µM
mebendazole in the mucosa of the large intestine ([3]; intraperitoneal 100 mg/kg, 2 h): 1 µmol/g
mebendazole in the mucosa of the small intestine ([3]; intraperitoneal 100 mg/kg, 2 h): 4 µmol/g
administered drug in the large intestine ([3]; oral 100 mg/kg, 2 h): 18 µmol/g
administered drug in the mucosa of the large intestine ([3]; oral 100 mg/kg, 2 h): 3 µmol/g
administered drug in the mucosa of the small intestine ([3]; oral 100 mg/kg, 2 h): 8 µmol/g
administered drug in the small intestine ([3]; oral 100 mg/kg, 2 h): 222 µmol/g
administered drug in the stomach ([3]; oral 100 mg/kg, 2 h): 215 µmol/g
administered drug in the large intestine ([3]; oral 100 mg/kg, 5 h): 100 µmol/g
administered drug in the mucosa of the large intestine ([3]; oral 100 mg/kg, 5 h): 5 µmol/g
administered drug in the mucosa of the small intestine ([3]; oral 100 mg/kg, 5 h): 6 µmol/g
administered drug in the large intestine ([3]; oral 100 mg/kg, 8 h): 40 µmol/g
administered drug in the mucosa of the large intestine ([3]; oral 100 mg/kg, 8 h): 2 µmol/g
administered drug in the mucosa of the small intestine ([3]; oral 100 mg/kg, third value, time not given): 4 µmol/g
MBZ in worms (T. muris [4]; incubation at 5 μM): 482 ± 388 nmol/10 worms
MBZ in worms (T. muris [4]; incubation at 10 μM): 626 ± 463 nmol/10 worms
MBZ in worms (T. muris [4]; incubation at 25 μM): 672 ± 251 nmol/10 worms
MBZ in worms (T. muris [4]; incubation at 50 μM): 826 ± 390 nmol/10 worms
MBZ in worms (T. muris [4]; incubation at 75 μM): 910 ± 362 nmol/10 worms
MBZ in worms (T. muris [4]; incubation at 100 μM): 861 ± 503 nmol/10 worms
Compound: COC(=O)Nc1nc2ccc(C(=O)c3ccccc3)cc2[nH]1 [Mebendazole, mebendazole]
Drug effect (adult T. muris; incubation at >600 μM, 2012): <50% ^b
Drug effect (adult H. polygyrus): 0% [100 μM] ^a
cure rate (trichuriasis): below 36%
Worm burden reduction (T. muris [2]; oral 150 mg/kg): 68% [150 mg/kg] ^c
Worm burden reduction (H. polygyrus): 59% [100 mg/kg] ^a

Compound: CN1CCCN=C1/C=C/c1cccc(O)c1 [Oxantel pamoate, oxantel pamoate]
EC50 (adult T. muris; serial dilution, 2013): 4 µM

drug quantity in worms, maximum (T. muris [1]): ≤ 34 nmol per ten T. muris
oxantel pamoate in worms (T. muris [1]; intraperitoneal 50 mg/kg, 2 h): no compound could be quantified
oxantel pamoate in worms (T. muris [1]; oral 100 mg/kg, 5 h): 34 nmol/10 worms
oxantel pamoate in worms (T. muris [1]; oral 100 mg/kg, 8 h): 22 nmol/10 worms
oxantel pamoate in the large intestine ([3]; intraperitoneal 50 mg/kg, 2 h): 7 µmol/g
oxantel pamoate in the mucosal tissue of the large intestine ([3]; intraperitoneal 50 mg/kg, 2 h): 17 µmol/g
oxantel pamoate in the mucosal tissue of the small intestine ([3]; intraperitoneal 50 mg/kg, 2 h): 2 µmol/g
oxantel pamoate in the small intestine ([3]; intraperitoneal 50 mg/kg, 2 h): 7 µmol/g
oxantel pamoate in the stomach ([3]; intraperitoneal 50 mg/kg, 2 h): 5 µmol/g
oxantel pamoate plasma level ([3]; intraperitoneal 50 mg/kg, 2 h, below the LLOQ): 0.21 µM
plasma concentration of the administered drug ([3]; oral 100 mg/kg, 2-8 h (all times)): < 0.7 µM
administered drug in the small intestinal mucosa ([3]; oral 100 mg/kg, 5 and 8 h): 2 µmol/g
administered drug in the large intestine ([3]; oral 100 mg/kg, 2 h): 6 µmol/g
administered drug in the mucosa of the small intestine ([3]; oral 100 mg/kg, 2 h): 31 µmol/g
administered drug in the small intestine ([3]; oral 100 mg/kg, 2 h): 1951 µmol/g
administered drug in the stomach ([3]; oral 100 mg/kg, 2 h): 5278 µmol/g
administered drug in the large intestine ([3]; oral 100 mg/kg, 5 h): 359 µmol/g
administered drug in the small intestine ([3]; oral 100 mg/kg, 5 h): 54 µmol/g
administered drug in the stomach ([3]; oral 100 mg/kg, 5 h): 302 µmol/g
administered drug in the large intestine ([3]; oral 100 mg/kg, 8 h): 110 µmol/g
administered drug in the small intestine ([3]; oral 100 mg/kg, 8 h): 61 µmol/g
administered drug in the stomach ([3]; oral 100 mg/kg, 8 h): 364 µmol/g
time after which uptake ceased (T. muris [4]; exposure at 25 μM): 8 h
OxP in worms (T. muris [4]; incubation at 5 μM): 13 ± 9 nmol/10 worms
OxP in worms (T. muris [4]; incubation at 10 μM): 27 ± 9 nmol/10 worms
OxP in worms (T. muris [4]; incubation at 25 μM): 65 ± 5 nmol/10 worms
OxP in worms (T. muris [4]; incubation at 50 μM): 155 ± 41 nmol/10 worms
OxP in worms (T. muris [4]; incubation at 75 μM): 169 ± 24 nmol/10 worms
OxP in worms (T. muris [4]; incubation at 100 μM): 197 ± 46 nmol/10 worms
Compound: CN1CCCN=C1/C=C/c1cccc(O)c1.O=C(O)c1cc2ccccc2c(Cc2c(O)c(C(=O)O)cc3ccccc23)c1O [Oxantel pamoate, oxantel pamoate]
oxantel pamoate in plasma [5]: could not quantify
Worm burden reduction (T. muris [2]; oral 10 mg/kg): 93% [10 mg/kg] ^c
